According to patent publication US8940314B2, “Repellent to insects harmful to a plant and method for repelling the same” (Riken, priority 2004, dated 2015):

Key:
Assay type in all cases: in vivo
silverleaf whitefly = assay: Repelling effect on silverleaf whitefly, treated cucumber seed leaves; conditions: ingredient 80 parts + auxiliary B 20 parts, 200 mg/100 ml water, 3 days at 22 to 30° C., number of adult insects vs distilled water area
Experimental: (§1) (polyoxyethylene phenyl ether+dodecylbenzenesulufonate): soybean oil (1:1:1) (20 parts by mass) listed in Table 2 were mixed to prepare a sample of the repellent of the present invention. The repellent was diluted with water to 200 mg/100 ml which was then applied to seed leaves of cucumber (variety: Sagami Hanjiro). As control samples, auxiliary B alone and distilled water were used. After drying, the plant was maintained at 22 to 30° C. for 3 days in an isolated room in which adult silverleaf whiteflies were grown and the number of adult insects that came flying was counted with time. A repelling ratio was determined according to the following formula.

cotton aphid = assay: Repelling effect on cotton aphid, treated cucumber true leaves; conditions: ingredient 80 parts + auxiliary A 20 parts, 200 mg/100 ml water, 7 days at 22 to 30° C., number of adult insects vs distilled water area
Experimental: Main ingredients (80 parts by mass) and auxiliary A (polyoxyethylene (5) monododecyl ether) (20 parts by mass) listed in Table 3 were mixed to prepare a sample of the repellent of the present invention.
(§2) The repellent was diluted with water to 200 mg/100 ml which was then applied to true leaves of cucumber (variety: Sagami Hanjiro at 0.7 leaf stage). As control samples, auxiliary A alone and distilled water were used. After drying, the plant was maintained at 22 to 30° C. for 7 days in an isolated room in which cotton aphid were grown and the number of adult insects that came flying was counted with time. A repelling ratio was determined according to the following formula. Repelling ratio (%)=100×[1−(the number of adult insects in the repellent applied area)/(the number of adult insects in the distilled water applied area)]

green peach aphid = assay: Repelling effect on green peach aphid, treated eggplant seed leaves; conditions: ingredient 80 parts + auxiliary B 20 parts, 200 mg/100 ml water, 7 days at 22 to 30° C., number of adult insects vs distilled water area
Experimental: as §1, with “oil (1:1:1))” for “oil (1:1:1)”, “Table 4” for “Table 2”, “of eggplant” for “of cucumber”, “(variety: Senryo No. 2).” for “(variety: Sagami Hanjiro).”, “for 7” for “for 3”, “which green peach aphid” for “which adult silverleaf whiteflies”

greenhouse whitefly = assay: Repelling effect on greenhouse whitefly, treated common bean seed leaves; conditions: ingredient 80 parts + auxiliary A 20 parts, 200 mg/100 ml water, 3 days at 22 to 30° C., number of adult insects vs distilled water area
Experimental: Main ingredients (80 parts by mass) and auxiliary A (polyoxyethylene (5) monododecyl ether) (20 parts by mass) listed in Table 1 were mixed to prepare a sample of the repellent of the present invention.
as §2, with “seed” for “true”, “common bean” for “cucumber”, “Taisho Kintoki).” for “Sagami Hanjiro at 0.7 leaf stage).”, “3” for “7”, “adult greenhouse whiteflies” for “cotton aphid”

Thrips palmi Karny = assay: Repelling effect on Thrips palmi Karny, insect damage on treated eggplant true leaves; conditions: ingredient 80 parts + auxiliary B 20 parts, 200 mg/100 ml water, 10 days at 22 to 30° C., total degree of insect damage vs distilled water area
Experimental: The same procedures in Example 5 were repeated to prepare the repellent except that auxiliary B (diglycerin monooleate : (polyoxyethylene phenyl ether+dodecylbenzenesulufonate): soybean oil (1:1:1)) was used in place of auxiliary A.
(§3) The repellent was diluted with water to 200 mg/100 ml which was then applied to true leaves of eggplant (variety: Senryo No. 2 at 3.5 leaf stage). As control samples, auxiliary B alone and distilled water were used. After drying, the plant was maintained at 22 to 30° C. for 10 days in an isolated room in which adult Thrips palmi Karny were grown and the degree of insect damage (the number of insect damage spots) was observed and were totaled based on the criteria: 0 for no damage, 1 for very slight damage, 3 for slight damage, 5 for remarkable damage and 10 for serious damage. A repelling ratio was determined according to the following formula. Repelling ratio (%)=100×[1−(the total degree of insect damage in the repellent applied area)/(the total degree of insect damage in the distilled water applied area)]

western flower thrips = assay: Repelling effect on western flower thrips, insect damage on treated eggplant true leaves; conditions: ingredient 80 parts + auxiliary A 20 parts, 200 mg/100 ml water, 10 days at 22 to 30° C., total degree of insect damage vs distilled water area
Experimental: as §3, with “Main ingredients (80 parts by mass) and auxiliary A (polyoxyethylene (5) monododecyl ether) (20 parts by mass) listed in Table 5 were mixed to prepare a sample of the repellent of the present invention. The” for “The”, “A” for “B”, “western flower thrips” for “Thrips palmi Karny”, “formula.” for “formula. Repelling ratio (%)=100×[1−(the total degree of insect damage in the repellent applied area)/(the total degree of insect damage in the distilled water applied area)]”

CCCCCCCCCC(=O)O [1-18, n-capric acid]
Repelling ratio (%) (silverleaf whitefly): 86%
Repelling ratio (%) (cotton aphid): 76%
Repelling ratio (%) (green peach aphid): 68%
Repelling ratio (%) (greenhouse whitefly): 90%

CCCCCCCC/C=C\CCCCCCCC(=O)O [1-19, oleic acid]
Repelling ratio (%) (Thrips palmi Karny): 69%
Repelling ratio (%) (silverleaf whitefly): 68%
Repelling ratio (%) (cotton aphid): 70%
Repelling ratio (%) (green peach aphid): 70%
Repelling ratio (%) (western flower thrips): 76%
Repelling ratio (%) (greenhouse whitefly): 84%

CC(C)CCCCCCCCCCCCCCC(=O)O [1-20, isostearic acid]
Repelling ratio (%) (silverleaf whitefly): 65%
Repelling ratio (%) (greenhouse whitefly): 72%

OC[C@@H](O)[C@H]1OC[C@H](O)[C@H]1O [1-21, sorbitan]
Repelling ratio (%) (silverleaf whitefly): 67%
Repelling ratio (%) (cotton aphid): 68%
Repelling ratio (%) (green peach aphid): 62%
Repelling ratio (%) (greenhouse whitefly): 74%

CCCCCCCCCCCC(=O)OCC(COC(=O)CCCCCCCCCCC)OC(=O)CCCCCCCCCCC [5-22, glycerin trilaurate]
Repelling ratio (%) (Thrips palmi Karny): 90%
Repelling ratio (%) (western flower thrips): 82%

OC[C@@H](O)[C@@H](O)[C@H](O)[C@@H](O)CO [5-23, sorbitol]
Repelling ratio (%) (Thrips palmi Karny): 55%
Repelling ratio (%) (western flower thrips): 61%

citric acid unsaturated fatty acid monoglyceride [1-7]
Repelling ratio (%) (silverleaf whitefly): 71%
Repelling ratio (%) (cotton aphid): 92%
Repelling ratio (%) (green peach aphid): 81%
Repelling ratio (%) (greenhouse whitefly): 73%

decaglycerin laurate [1-9]
Repelling ratio (%) (silverleaf whitefly): 70%
Repelling ratio (%) (cotton aphid): 90%
Repelling ratio (%) (green peach aphid): 83%
Repelling ratio (%) (greenhouse whitefly): 80%

decaglycerin oleate [1-8]
Repelling ratio (%) (silverleaf whitefly): 75%
Repelling ratio (%) (cotton aphid): 95%
Repelling ratio (%) (green peach aphid): 78%
Repelling ratio (%) (greenhouse whitefly): 76%

decaglycerin stearate [5-7]
Repelling ratio (%) (Thrips palmi Karny): 70%
Repelling ratio (%) (western flower thrips): 77%

diglycerin monostearate [5-5]
Repelling ratio (%) (Thrips palmi Karny): 55%
Repelling ratio (%) (western flower thrips): 60%

glycerin diacetomonolaurate [1-6]
Repelling ratio (%) (silverleaf whitefly): 94%
Repelling ratio (%) (cotton aphid): 82%
Repelling ratio (%) (green peach aphid): 77%
Repelling ratio (%) (greenhouse whitefly): 96%

glycerin monoacetomonostearate [5-8]
Repelling ratio (%) (Thrips palmi Karny): 55%
Repelling ratio (%) (western flower thrips): 68%

glycerin monocaprylate [1-1]
Repelling ratio (%) (silverleaf whitefly): 73%
Repelling ratio (%) (cotton aphid): 88%
Repelling ratio (%) (green peach aphid): 76%
Repelling ratio (%) (greenhouse whitefly): 82%

glycerin monolaurate [5-1]
Repelling ratio (%) (Thrips palmi Karny): 65%
Repelling ratio (%) (western flower thrips): 62%

glycerin monooleate [1-2]
Repelling ratio (%) (silverleaf whitefly): 70%
Repelling ratio (%) (cotton aphid): 85%
Repelling ratio (%) (green peach aphid): 81%
Repelling ratio (%) (greenhouse whitefly): 82%

glycerin monopalmitate [5-3]
Repelling ratio (%) (Thrips palmi Karny): 71%
Repelling ratio (%) (western flower thrips): 68%

glycerin monostearate [5-2]
Repelling ratio (%) (Thrips palmi Karny): 62%
Repelling ratio (%) (western flower thrips): 58%

poly (2-3) glycerin oleate [5-6]
Repelling ratio (%) (Thrips palmi Karny): 68%
Repelling ratio (%) (western flower thrips): 58%

polyoxyethylene (5) monododecyl ether [1-23, reference compound]
Repelling ratio (%) (cotton aphid): 3%
Repelling ratio (%) (western flower thrips): 8%
Repelling ratio (%) (greenhouse whitefly): 5%

polyoxyethylene (20) sorbitan [5-13]
Repelling ratio (%) (Thrips palmi Karny): 54%
Repelling ratio (%) (western flower thrips): 68%

polyoxyethylene (40) sorbitan [1-15]
Repelling ratio (%) (Thrips palmi Karny): 69%
Repelling ratio (%) (silverleaf whitefly): 85%
Repelling ratio (%) (cotton aphid): 75%
Repelling ratio (%) (green peach aphid): 82%
Repelling ratio (%) (western flower thrips): 75%
Repelling ratio (%) (greenhouse whitefly): 70%

polyoxyethylene (60) sorbitan [1-16]
Repelling ratio (%) (silverleaf whitefly): 77%
Repelling ratio (%) (cotton aphid): 78%
Repelling ratio (%) (green peach aphid): 80%
Repelling ratio (%) (greenhouse whitefly): 73%

propylene glycol monooleate [1-10]
Repelling ratio (%) (Thrips palmi Karny): 81%
Repelling ratio (%) (silverleaf whitefly): 73%
Repelling ratio (%) (cotton aphid): 82%
Repelling ratio (%) (green peach aphid): 76%
Repelling ratio (%) (western flower thrips): 80%
Repelling ratio (%) (greenhouse whitefly): 82%

sorbitan laurate [1-4]
Repelling ratio (%) (Thrips palmi Karny): 63%
Repelling ratio (%) (silverleaf whitefly): 92%
Repelling ratio (%) (cotton aphid): 96%
Repelling ratio (%) (green peach aphid): 82%
Repelling ratio (%) (western flower thrips): 53%
Repelling ratio (%) (greenhouse whitefly): 92%

sorbitan oleate [1-5]
Repelling ratio (%) (silverleaf whitefly): 75%
Repelling ratio (%) (cotton aphid): 93%
Repelling ratio (%) (green peach aphid): 85%
Repelling ratio (%) (greenhouse whitefly): 80%

sorbitan palmitate [5-11]
Repelling ratio (%) (Thrips palmi Karny): 73%
Repelling ratio (%) (western flower thrips): 72%

succinic acid saturated acid monoglyceride [5-9]
Repelling ratio (%) (Thrips palmi Karny): 71%
Repelling ratio (%) (western flower thrips): 70%

sucrose fatty acid ester (laurate) [5-25]
Repelling ratio (%) (Thrips palmi Karny): 68%
Repelling ratio (%) (western flower thrips): 55%

sucrose fatty acid ester (oleate) [5-24]
Repelling ratio (%) (Thrips palmi Karny): 62%
Repelling ratio (%) (western flower thrips): 58%
